Reference: patent US20110178170A1, “GRISEOFULVIN ANALOGUES FOR THE TREATMENT OF CANCER BY INHIBITION OF CENTROSOMAL CLUSTERING” (DKFZ Deutsches Krebsforschungszentrum, priority 2007, published 2011)

Key:
[1] = test system: cancer cells; conditions: compared with griseofulvin; cited from earlier work
[2] = test system: tumor cell lines; experiment: cell-based screening for inhibition of centrosomal clustering (multipolar mitotic spindles); set-up: species or system human; conditions: several different tumor cell lines; screening of Penicillium extracts
Source text: Supernumerary centrosomes do almost exclusively occur in a wide variety of neoplastic disorders but not in non-transformed cells. Therefore, inhibition of centrosomal clustering with consequential induction of multipolar spindles and subsequent cell death would specifically target tumor cells with no impact on normal cells with a regular centrosome content. To identify cell-permeable small molecules that inhibit centrosomal clustering in cells with supernumerary centrosomes, we developed a cell-based screening strategy founded on the visualization of microtubules and chromatin.
Therefore, we decided to screen a fungal extract library for compounds inhibiting centrosomal clustering. The fungal extracts were selected based on a chemotaxonomic screening approach, in order to increase the chemodiversity to be tested.
The FIGS. 1 to 12 give representative examples of compounds, which have been prepared in the framework of the present invention, together with their activity, which has been determined as described below.
Cell Culture. All cell lines were cultured in Dulbecco's modified Eagle's Medium (DMEM; PAA Laboratories, Pasching, Austria) supplemented with 10% FCS (PAA). […]
Immunofluorescence. […] Immunostained cells were examined using a Zeiss Axiovert 200 M fluorescence microscope (Göttingen, Germany). […]

Row | Compound | inhibiting effect on cancer cells relative to griseofulvin [1] | inhibition of centrosome coalescence [2]
1 | CCCOC1=CC(=O)C[C@@H](C)[C@]12Oc1c(Cl)c(OC)cc(OC)c1C2=O | stronger inhibiting effect on cancer cells than griseofulvin itself | –
2 | COC1=CC(=O)C[C@@H](C)[C@]12Oc1c(Cl)c(OC)cc(OC)c1C2=O [griseofulvin, (2-5-trans)-7-chloro-2,4,6-trimethoxy-6-methylspiro-[benzofuran-2(3H), 1-(2)-cyclohexene]-3,4-dione] | – | inhibitor of centrosome coalescence
